The values that follow come from US6589984B1, “Benzofurylpyrone derivatives” (Teijin Limited, priority 1998, dated 2003).

The nature of test [1]: Drug effect evaluation test: serum TG, total cholesterol and HDL in rats after 7 days of oral dosing. Format: in vivo. The following applies: SD male rats, 4 hours after final administration. On the procedure: 6-(benzofuran-2-yl)-3,5-dimethyl-4-hydroxy-2H-pyran-2-one (Example 2) was suspended in a 0.5% carboxymethyl cellulose Na aqueous solution (vehicle) to prepare 20 mg/ml and 60 mg/ml administration solutions, and these were orally administered to 6-week-old SD male rats at a dose of 5 ml/kg once a day, for 7 consecutive days. CE-2 by Nihon Crea Co. was used for the rat feed, and the rats were allowed free access to food and water. The rats were separated into a vehicle-administered group of 6 rats and a drug-administered group of 6 rats for a test. At 4 hours after the final drug administration, the rats were killed under ether anesthesia, blood was drawn from the abdominal aorta, and the serum levels of TG, total cholesterol (TC) and HDL-were measured.
Triglyceride EII-HA Test Wako (product of Wako Junyaku Kogyo) was used for the TG measurement, HA Test Wako/Cholesterol E-HA Test Wako (product of Wako Junyaku Kogyo) was used for the total cholesterol (TC) measurement, and HDL-cholesterol Test Wako (product of Wako Junyaku Kogyo) was used for the HDL measurement.

Test [2] deals with Human hepatic cancer cells HepG2. The test can be described thus: TG production inhibiting activity (14C-acetic acid incorporation into TG) in HepG2 cells. In kind it is cell-based. Particulars: for IC50: group criterion. Put shortly: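 HepG2 cells cultured 6 days in eRDF with 10% bovine serum, then in serum-free eRDF given compound (diluted from 20 mM DMSO stock) plus 14C-acetic acid for one day at 37 °C, 5% CO2. Lipids extracted with hexane/isopropanol 2:1 and separated by TLC; the TG spot was cut out and counted by liquid scintillation.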

Where [3] appears, read: 100 mg/kg orally once a day for 7 days.
[4] abbreviates: 300 mg/kg orally once a day for 7 days.
[5] abbreviates: Homo sapiens, HepG2, alternatives: IC50 less than 10 μM, or at least 30% inhibition at 1 μM, or at least 50% inhibition at 10 μM.
Setting [6] is: Homo sapiens, HepG2, alternatives: IC50 at least 10 μM and less than 100 μM, or at least 5% and less than 30% inhibition at 1 μM, or at least 30% and less than 50% inhibition at 10 μM.

`Cc1c(-c2cc3ccccc3o2)oc(=O)c(C)c1O` [Example 2, 6-(benzofuran-2-yl)-3,5-dimethyl-4-hydroxy-2H-pyran-2-one]: in test [1] (setting [3]), the “Serum HDL-C (mg/dl) (mean ± SE)” value was 35.0 ± 3.1 mg/dL and the “Serum TG (mg/dl) (mean ± SE)” value stood at 94.8 ± 6.5 mg/dL. In addition, in test [1] (setting [4]), the “Serum HDL-C (mg/dl) (mean ± SE)” value stood at 42.2 ± 3.8 mg/dL and the “Serum TG (mg/dl) (mean ± SE)” value was 74.8 ± 10.7 mg/dL. The “triglyceride biosynthesis inhibiting activity” value in test [2] (HepG2, conclusion in words from Table 1) is reported as “exhibits triglyceride biosynthesis inhibiting activity”. In test [2] (Homo sapiens, 24 h, sample concentration 1 μM, HepG2, one day culture with 14C-acetic acid), this compound displayed an inhibition at 1 µM of 22%. The compound also returned an inhibition at 10 µM in test [2] (Homo sapiens, 24 h, sample concentration 10 μM, HepG2, one day culture with 14C-acetic acid) of 70%. Moreover, 100 µM produced 98% inhibition in test [2] (Homo sapiens, 24 h, sample concentration 100 μM, HepG2, one day culture with 14C-acetic acid). In test [2] (setting [5]), this compound came in with an IC50 of less than 10 µM.
In test [2] (setting [5]), `Cc1c(-c2cc3cc(OCc4cccc(F)c4)ccc3o2)oc(=O)c(C)c1O` [Example 226, 3,5-dimethyl-6-(5-(3-fluorobenzyloxy)benzofuran-2-yl)-4-hydroxy-2H-pyran-2-one] returned an IC50 of less than 10 µM.
On the same count and under the same terms, the result for `Cc1c(-c2cc3cc(C=C4SC(=O)NC4=O)ccc3o2)oc(=O)c(C)c1O` [Example 9, 3,5-dimethyl-6-(5-((3,5-dioxo-2,4-thiazolidinylidene)methyl)benzofuran-2-yl)-4-hydroxy-2H-pyran-2-one] reads less than 10 µM.
On the same count and under the same terms, the value for `Cc1c(-c2cc3ccccc3o2)oc(=O)c(C)c1OC(=O)c1ccncc1` [Example 50, 6-(benzofuran-2-yl)-3,5-dimethyl-4-isonicotinoyloxy-2H-pyran-2-one] was less than 10 µM.
In test [2] (setting [5]), `COc1cccc(COc2ccc3oc(-c4oc(=O)c(C)c(O)c4C)cc3c2)c1` [Example 236, 3,5-dimethyl-4-hydroxy-6-(5-(3-methoxybenzyloxy)benzofuran-2-yl)-2H-pyran-2-one] registered an IC50 of less than 10 µM.
The same measure, in the same setting: the value for `Cc1c(-c2cc3cc(OCc4ccccc4)ccc3o2)oc(=O)c(C)c1OC(=O)c1ccncc1` [Example 56, 6-(5-benzyloxybenzofuran-2-yl)-3,5-dimethyl-4-isonicotinoyloxy-2H-pyran-2-one] was less than 10 µM.
`Cc1c(-c2cc3cc(OCC4CCCCC4)ccc3o2)oc(=O)c(C)c1O` [Example 207, 6-(5-(cyclohexylmethoxy)benzofuran-2-yl)-3,5-dimethyl-4-hydroxy-2H-pyran-2-one]: the concentration for half-maximal inhibition (IC50) in test [2] (setting [6]) fell in the range of 10 to 100 µM.
The compound `Cc1c(-c2cc3ccccc3o2)oc(=O)c(C)c1OC(=O)COc1ccccc1` [Example 42, 6-(benzofuran-2-yl)-3,5-dimethyl-4-phenoxyacetyloxy-2H-pyran-2-one] displayed a half-inhibitory concentration (IC50) in test [2] (setting [5]) of less than 10 µM.
On the same count and under the same terms, the result for `Cc1c(-c2cc3cc(OCc4ccc(C(=O)O)cc4)ccc3o2)oc(=O)c(C)c1O` [Example 117, 6-(5-(4-carboxybenzyloxy)benzofuran-2-yl)-3,5-dimethyl-4-hydroxy-2H-pyran-2-one] reads less than 10 µM.
The same measure, in the same setting: the result for `Cc1c(-c2cc3cc(N(Cc4ccccc4)Cc4ccccc4)ccc3o2)oc(=O)c(C)c1O` [Example 49, 6-(5-(dibenzylamino)benzofuran-2-yl)-3,5-dimethyl-4-hydroxy-2H-pyran-2-one] reads less than 10 µM; that for `CCCCCc1c(-c2cc3ccccc3o2)oc(=O)c(C)c1O` [Example 11, 6-(benzofuran-2-yl)-4-hydroxy-3-methyl-5-n-pentyl-2H-pyran-2-one], less than 10 µM.
On to `Cc1c(-c2cc3cc(OCc4ccccc4)ccc3o2)oc(=O)c(C)c1OC(=O)c1cccnc1` [Example 55, 6-(5-benzyloxybenzofuran-2-yl)-3,5-dimethyl-4-nicotinoyloxy-2H-pyran-2-one], for which the IC50 in test [2] (setting [5]) was less than 10 µM.
Still for that read-out and setting: the value for `CC(=O)Oc1c(C)c(-c2cc3cc(OCc4sc(Cl)nc4Cl)ccc3o2)oc(=O)c1C` [Example 244, 4-acetyloxy-6-(5-(2,4-dichloro-5-thiazolylmethoxy)benzofuran-2-yl)-3,5-dimethyl-2H-pyran-2-one] was less than 10 µM.
For the compound `CC(=O)Oc1c(C)c(-c2cc3cc(C(=O)Nc4ccccc4)ccc3o2)oc(=O)c1C` [Example 295, 4-acetyloxy-3,5-dimethyl-6-(5-(phenylcarbamoyl)benzofuran-2-yl)-2H-pyran-2-one], the IC50 in test [2] (setting [6]) was 10 to 100 µM.
For the compound `Cc1c(-c2cc3ccccc3o2)oc(=O)c(C)c1OC(=O)Cc1ccccc1` [Example 31, 6-(benzofuran-2-yl)-3,5-dimethyl-4-phenylacetyloxy-2H-pyran-2-one], the 50% inhibitory concentration (IC50) in test [2] (setting [5]) is less than 10 µM.
On the same count and under the same terms, the result for `CCCCOc1ccc(COc2ccc3oc(-c4oc(=O)c(C)c(O)c4C)cc3c2)cc1` [Example 163, 6-(5-(4-n-butoxybenzyloxy)benzofuran-2-yl)-3,5-dimethyl-4-hydroxy-2H-pyran-2-one] reads less than 10 µM; that for `CC(=O)Oc1c(C)c(-c2cc3cc(OS(=O)(=O)c4ccc(C)cc4)ccc3o2)oc(=O)c1C` [Example 274, 4-acetyloxy-3,5-dimethyl-6-(5-p-toluenesulfonyloxybenzofuran-2-yl)-2H-pyran-2-one], less than 10 µM.
Consider `COc1ccc2cc(-c3oc(=O)c(C)c(OC(C)=O)c3C)oc2c1` [Example 273, 4-acetyloxy-3,5-dimethyl-6-(6-methoxybenzofuran-2-yl)-2H-pyran-2-one], for which the IC50 in test [2] (setting [6]) fell in the range of 10 to 100 µM.
For `Cc1c(-c2cc3cc(OCC4CCCC4)ccc3o2)oc(=O)c(C)c1O` [Example 126, 6-(5-(cyclopentylmethoxy)benzofuran-2-yl)-3,5-dimethyl-4-hydroxy-2H-pyran-2-one], the IC50 in test [2] (setting [6]) lay in the range of 10 to 100 µM.

One may read the inhibition as the share of the control response that was lost under treatment. Higher therefore signals strong suppression. Broadly, the IC50 is the concentration at which inhibition is half-maximal.
